This note sets out measurements from paper PMC5975062 (Alzheimer's & Dementia : Translational Research & Clinical …, 2015).

One test has as its target QC activity in serum (Homo sapiens, UniProt Q16769). Conditions: after single and multiple doses.
The next test has as its target QC activity in CSF (Homo sapiens, UniProt Q16769). The note with it: after single and multiple doses.

Each structure is given as a SMILES string. “Also recorded” adds a separate entry of the source.

Sequence of QC activity in serum (Q16769 29-361): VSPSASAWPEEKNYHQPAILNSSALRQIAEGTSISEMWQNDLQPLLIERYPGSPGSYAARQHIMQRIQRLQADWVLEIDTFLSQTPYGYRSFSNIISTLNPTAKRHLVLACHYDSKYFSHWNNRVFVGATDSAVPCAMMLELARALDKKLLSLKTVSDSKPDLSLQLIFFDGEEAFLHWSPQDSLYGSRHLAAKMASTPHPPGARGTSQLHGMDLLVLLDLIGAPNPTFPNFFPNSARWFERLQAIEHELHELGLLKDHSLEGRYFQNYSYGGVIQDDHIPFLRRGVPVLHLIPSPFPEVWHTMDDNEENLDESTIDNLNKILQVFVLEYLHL
Sequence of QC activity in CSF (Q16769 29-361): as above

As for `CCCOc1ccc([C@H]2CNC(=O)N2c2ccc3[nH]cnc3c2)cc1` [PQ912], at QC activity in serum, the “QC activity in serum” value is listed as “inhibited in a dose-related manner; also recorded: decreased in a dose-related manner”. In addition, the “QC activity in CSF” value on QC activity in CSF is listed as “inhibited in a dose-related manner; also recorded: decreased in a dose-related manner”.
